Reference: paper PMC6370799, “Flavones hydroxylated at 5, 7, 3′ and 4′ ameliorate skin fibrosis via inhibiting activin receptor-like kinase 5 kinase activity” (Cell Death & Disease, 2019)

These compounds were tested against T1, activin receptor-like kinase 5 (ALK5) (Homo sapiens, UniProt P36897) (assay: LanthaScreen Eu kinase binding assay (TR-FRET tracer displacement); also in vitro GST-Smad3 phosphorylation assay).
T1 construct: gene TGFBR1; GST-ALK5
T1 sequence (P36897 34-503): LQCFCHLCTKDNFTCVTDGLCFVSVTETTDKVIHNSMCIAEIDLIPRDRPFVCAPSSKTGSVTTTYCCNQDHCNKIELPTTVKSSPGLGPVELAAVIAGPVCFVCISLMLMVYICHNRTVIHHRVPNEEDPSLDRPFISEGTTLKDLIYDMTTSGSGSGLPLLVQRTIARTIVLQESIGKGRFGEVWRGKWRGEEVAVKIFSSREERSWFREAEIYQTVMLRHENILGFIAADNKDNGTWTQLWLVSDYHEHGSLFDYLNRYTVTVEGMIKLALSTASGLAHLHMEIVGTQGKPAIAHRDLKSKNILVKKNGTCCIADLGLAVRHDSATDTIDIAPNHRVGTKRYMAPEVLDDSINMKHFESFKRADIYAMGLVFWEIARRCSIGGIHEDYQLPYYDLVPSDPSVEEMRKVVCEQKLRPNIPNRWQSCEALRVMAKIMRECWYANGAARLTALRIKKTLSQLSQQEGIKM

Row | Compound | IC50 [nM]
1 | O=c1c(O)c(-c2cc(O)c(O)c(O)c2)oc2cc(O)cc(O)c12 [myricetin] | 4080
2 | O=c1cc(-c2ccc(O)c(O)c2)oc2cc(O)cc(O)c12 [luteolin] | 1060
3 | O=c1c(O)c(-c2ccc(O)c(O)c2)oc2cc(O)cc(O)c12 [quercetin] | 1480
